Data published in PubChem BioAssay (NCI).
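Results reflect a 48-hour exposure of cells in 96-well plates to compound at five concentrations. The concentration for full growth arrest is given as TGI.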

Key:
Experiment in all cases: NCI anticancer screen, dose series, 48 h
786-0 renal = system: 786-0 renal
A498 renal = system: A498 renal
A549 NSCLC = system: A549 NSCLC
ACHN renal = system: ACHN renal
CAKI-1 renal = system: CAKI-1 renal
CCRF-CEM leukemia = system: CCRF-CEM leukemia
COLO 205 colon = system: COLO 205 colon
DLD-1 colon = system: DLD-1 colon
DMS 114 small cell lung = system: DMS 114 small cell lung
DMS 273 small cell lung = system: DMS 273 small cell lung
EKVX NSCLC = system: EKVX NSCLC
HCC-2998 colon = system: HCC-2998 colon
HCT-116 colon = system: HCT-116 colon
HCT-15 colon = system: HCT-15 colon
HL-60(TB) leukemia = system: HL-60(TB) leukemia
HOP-62 NSCLC = system: HOP-62 NSCLC
HT29 colon = system: HT29 colon
IGROV1 ovarian = system: IGROV1 ovarian
K-562 leukemia = system: K-562 leukemia
KM12 colon = system: KM12 colon
KM20L2 colon = system: KM20L2 colon
LOX IMVI melanoma = system: LOX IMVI melanoma
M14 melanoma = system: M14 melanoma
M19-MEL melanoma = system: M19-MEL melanoma
MALME-3M melanoma = system: MALME-3M melanoma
MOLT-4 leukemia = system: MOLT-4 leukemia
NCI-H226 lung = system: NCI-H226 lung
NCI-H23 lung = system: NCI-H23 lung
NCI-H460 lung = system: NCI-H460 lung
NCI-H522 lung = system: NCI-H522 lung
OVCAR-3 ovarian = system: OVCAR-3 ovarian
OVCAR-4 ovarian = system: OVCAR-4 ovarian
OVCAR-5 ovarian = system: OVCAR-5 ovarian
OVCAR-8 ovarian = system: OVCAR-8 ovarian
RPMI-8226 leukemia = system: RPMI-8226 leukemia
RXF 393 renal = system: RXF 393 renal
RXF-631 renal = system: RXF-631 renal
SF-268 CNS = system: SF-268 CNS
SF-295 CNS = system: SF-295 CNS
SF-539 CNS = system: SF-539 CNS
SK-MEL-2 melanoma = system: SK-MEL-2 melanoma
SK-MEL-28 melanoma = system: SK-MEL-28 melanoma
SK-MEL-5 melanoma = system: SK-MEL-5 melanoma
SK-OV-3 ovarian = system: SK-OV-3 ovarian
SN12C renal = system: SN12C renal
SNB-19 CNS = system: SNB-19 CNS
SNB-75 CNS = system: SNB-75 CNS
SNB-78 CNS = system: SNB-78 CNS
SR leukemia = system: SR leukemia
SW-620 colon = system: SW-620 colon
TK-10 renal = system: TK-10 renal
U251 CNS = system: U251 CNS
UACC-257 melanoma = system: UACC-257 melanoma
UACC-62 melanoma = system: UACC-62 melanoma
UO-31 renal = system: UO-31 renal
HOP-18 NSCLC = system: HOP-18 NSCLC
HOP-92 NSCLC = system: HOP-92 NSCLC
LXFL 529 NSCLC = system: LXFL 529 NSCLC

CC(C)CC(N=Cc1nc(-c2ccccc2)oc1O)C(=O)O (stereo not given)
TGI (786-0 renal): > 100 µM
TGI (A498 renal): > 100 µM
TGI (A549 NSCLC): > 100 µM
TGI (ACHN renal): > 100 µM
TGI (CAKI-1 renal): > 100 µM
TGI (CCRF-CEM leukemia): > 100 µM
TGI (COLO 205 colon): > 100 µM
TGI (DLD-1 colon): > 100 µM
TGI (DMS 114 small cell lung): > 100 µM
TGI (DMS 273 small cell lung): > 100 µM
TGI (EKVX NSCLC): > 100 µM
TGI (HCC-2998 colon): > 100 µM
TGI (HCT-116 colon): > 100 µM
TGI (HCT-15 colon): > 100 µM
TGI (HL-60(TB) leukemia): > 100 µM
TGI (HOP-62 NSCLC): > 100 µM
TGI (HT29 colon): > 100 µM
TGI (IGROV1 ovarian): > 100 µM
TGI (K-562 leukemia): > 100 µM
TGI (KM12 colon): > 100 µM
TGI (KM20L2 colon): > 100 µM
TGI (LOX IMVI melanoma): > 100 µM
TGI (M14 melanoma): > 100 µM
TGI (M19-MEL melanoma): > 100 µM
TGI (MALME-3M melanoma): > 100 µM
TGI (MOLT-4 leukemia): > 100 µM
TGI (NCI-H226 lung): > 100 µM
TGI (NCI-H23 lung): > 100 µM
TGI (NCI-H460 lung): > 100 µM
TGI (NCI-H522 lung): > 100 µM
TGI (OVCAR-3 ovarian): > 100 µM
TGI (OVCAR-4 ovarian): > 100 µM
TGI (OVCAR-5 ovarian): > 100 µM
TGI (OVCAR-8 ovarian): > 100 µM
TGI (RPMI-8226 leukemia): > 100 µM
TGI (RXF 393 renal): > 100 µM
TGI (RXF-631 renal): > 100 µM
TGI (SF-268 CNS): > 100 µM
TGI (SF-295 CNS): > 100 µM
TGI (SF-539 CNS): > 100 µM
TGI (SK-MEL-2 melanoma): > 100 µM
TGI (SK-MEL-28 melanoma): > 100 µM
TGI (SK-MEL-5 melanoma): > 100 µM
TGI (SK-OV-3 ovarian): > 100 µM
TGI (SN12C renal): > 100 µM
TGI (SNB-19 CNS): > 100 µM
TGI (SNB-75 CNS): > 100 µM
TGI (SNB-78 CNS): > 100 µM
TGI (SR leukemia): > 100 µM
TGI (SW-620 colon): > 100 µM
TGI (TK-10 renal): > 100 µM
TGI (U251 CNS): > 100 µM
TGI (UACC-257 melanoma): > 100 µM
TGI (UACC-62 melanoma): > 100 µM
TGI (UO-31 renal): > 100 µM

O=C(C=P(c1ccccc1)(c1ccccc1)c1ccccc1)CC(=S)CC(=O)C=P(c1ccccc1)(c1ccccc1)c1ccccc1
TGI (786-0 renal): > 100 µM
TGI (A498 renal): 20.6 µM
TGI (A549 NSCLC): > 100 µM
TGI (ACHN renal): 53.6 µM
TGI (CAKI-1 renal): > 100 µM
TGI (CCRF-CEM leukemia): > 100 µM
TGI (COLO 205 colon): 3.71 µM
TGI (DLD-1 colon): 17.9 µM
TGI (DMS 114 small cell lung): 27 µM
TGI (DMS 273 small cell lung): 10.1 µM
TGI (EKVX NSCLC): > 100 µM
TGI (HCC-2998 colon): 14.7 µM
TGI (HCT-116 colon): > 100 µM
TGI (HCT-15 colon): 29.3 µM
TGI (HOP-18 NSCLC): 9.04 µM
TGI (HOP-62 NSCLC): 24.8 µM
TGI (HOP-92 NSCLC): 6.09 µM
TGI (HT29 colon): > 100 µM
TGI (IGROV1 ovarian): > 100 µM
TGI (K-562 leukemia): > 100 µM
TGI (KM12 colon): 18.8 µM
TGI (KM20L2 colon): > 100 µM
TGI (LOX IMVI melanoma): > 100 µM
TGI (LXFL 529 NSCLC): 20.1 µM
TGI (M14 melanoma): 20.5 µM
TGI (M19-MEL melanoma): > 100 µM
TGI (MALME-3M melanoma): > 100 µM
TGI (NCI-H226 lung): 24.1 µM
TGI (NCI-H23 lung): 16.4 µM
TGI (NCI-H460 lung): 46.7 µM
TGI (NCI-H522 lung): 15.7 µM
TGI (OVCAR-3 ovarian): 12.5 µM
TGI (OVCAR-4 ovarian): > 100 µM
TGI (OVCAR-5 ovarian): 80 µM
TGI (OVCAR-8 ovarian): 22.9 µM
TGI (RPMI-8226 leukemia): > 100 µM
TGI (RXF 393 renal): 25.2 µM
TGI (RXF-631 renal): > 100 µM
TGI (SF-268 CNS): > 100 µM
TGI (SF-295 CNS): 14.5 µM
TGI (SF-539 CNS): 25 µM
TGI (SK-MEL-28 melanoma): > 100 µM
TGI (SK-MEL-5 melanoma): 8.26 µM
TGI (SK-OV-3 ovarian): > 100 µM
TGI (SN12C renal): 17.9 µM
TGI (SNB-19 CNS): > 100 µM
TGI (SW-620 colon): > 100 µM
TGI (TK-10 renal): 50.8 µM
TGI (U251 CNS): 11.7 µM
TGI (UACC-257 melanoma): 13 µM
TGI (UACC-62 melanoma): 47.1 µM
TGI (UO-31 renal): 98.9 µM

COc1ccc(OC)c2c(C(=O)O)c(C(C)c3ccccc3)ccc12 (stereo not given)
TGI (786-0 renal): > 100 µM
TGI (A498 renal): > 100 µM
TGI (A549 NSCLC): > 100 µM
TGI (ACHN renal): > 100 µM
TGI (CAKI-1 renal): > 100 µM
TGI (CCRF-CEM leukemia): > 100 µM
TGI (COLO 205 colon): > 100 µM
TGI (DLD-1 colon): > 100 µM
TGI (DMS 273 small cell lung): > 100 µM
TGI (EKVX NSCLC): > 100 µM
TGI (HCC-2998 colon): > 100 µM
TGI (HCT-116 colon): > 100 µM
TGI (HCT-15 colon): > 100 µM
TGI (HL-60(TB) leukemia): > 100 µM
TGI (HOP-18 NSCLC): > 100 µM
TGI (HOP-62 NSCLC): > 100 µM
TGI (HT29 colon): > 100 µM
TGI (IGROV1 ovarian): > 100 µM
TGI (K-562 leukemia): > 100 µM
TGI (KM12 colon): > 100 µM
TGI (KM20L2 colon): > 100 µM
TGI (LOX IMVI melanoma): > 100 µM
TGI (LXFL 529 NSCLC): > 100 µM
TGI (M14 melanoma): > 100 µM
TGI (M19-MEL melanoma): > 100 µM
TGI (MALME-3M melanoma): > 100 µM
TGI (MOLT-4 leukemia): > 100 µM
TGI (NCI-H226 lung): > 100 µM
TGI (NCI-H23 lung): > 100 µM
TGI (NCI-H460 lung): > 100 µM
TGI (NCI-H522 lung): > 100 µM
TGI (OVCAR-3 ovarian): > 100 µM
TGI (OVCAR-4 ovarian): > 100 µM
TGI (OVCAR-5 ovarian): > 100 µM
TGI (OVCAR-8 ovarian): > 100 µM
TGI (RXF 393 renal): > 100 µM
TGI (RXF-631 renal): > 100 µM
TGI (SF-268 CNS): > 100 µM
TGI (SF-295 CNS): > 100 µM
TGI (SK-MEL-2 melanoma): > 100 µM
TGI (SK-MEL-28 melanoma): > 100 µM
TGI (SK-MEL-5 melanoma): > 100 µM
TGI (SK-OV-3 ovarian): > 100 µM
TGI (SN12C renal): > 100 µM
TGI (SNB-19 CNS): > 100 µM
TGI (SNB-75 CNS): > 100 µM
TGI (SR leukemia): > 100 µM
TGI (SW-620 colon): > 100 µM
TGI (TK-10 renal): > 100 µM
TGI (U251 CNS): > 100 µM
TGI (UACC-257 melanoma): > 100 µM
TGI (UACC-62 melanoma): > 100 µM
TGI (UO-31 renal): > 100 µM
